Where “and” joins values, the source holds several entries; their conditions need not be identical. Equal entries are not always repeated. Where two headings read alike, the source gives them in different places. One block for each compound: values may come before it.
Columns and labels:
VR1/TRPV1 receptor = VR1/TRPV1 receptor (Homo sapiens, UniProt Q8NER1); test: IC50 (human) after pH stimulus; format: cell-based; details: for inhibition at 25 µM / inhibition at 10 µM: read-out: inhibition in percent, IC50 (human) after pH stimulus
Sequence of VR1/TRPV1 receptor (Q8NER1 whole entry): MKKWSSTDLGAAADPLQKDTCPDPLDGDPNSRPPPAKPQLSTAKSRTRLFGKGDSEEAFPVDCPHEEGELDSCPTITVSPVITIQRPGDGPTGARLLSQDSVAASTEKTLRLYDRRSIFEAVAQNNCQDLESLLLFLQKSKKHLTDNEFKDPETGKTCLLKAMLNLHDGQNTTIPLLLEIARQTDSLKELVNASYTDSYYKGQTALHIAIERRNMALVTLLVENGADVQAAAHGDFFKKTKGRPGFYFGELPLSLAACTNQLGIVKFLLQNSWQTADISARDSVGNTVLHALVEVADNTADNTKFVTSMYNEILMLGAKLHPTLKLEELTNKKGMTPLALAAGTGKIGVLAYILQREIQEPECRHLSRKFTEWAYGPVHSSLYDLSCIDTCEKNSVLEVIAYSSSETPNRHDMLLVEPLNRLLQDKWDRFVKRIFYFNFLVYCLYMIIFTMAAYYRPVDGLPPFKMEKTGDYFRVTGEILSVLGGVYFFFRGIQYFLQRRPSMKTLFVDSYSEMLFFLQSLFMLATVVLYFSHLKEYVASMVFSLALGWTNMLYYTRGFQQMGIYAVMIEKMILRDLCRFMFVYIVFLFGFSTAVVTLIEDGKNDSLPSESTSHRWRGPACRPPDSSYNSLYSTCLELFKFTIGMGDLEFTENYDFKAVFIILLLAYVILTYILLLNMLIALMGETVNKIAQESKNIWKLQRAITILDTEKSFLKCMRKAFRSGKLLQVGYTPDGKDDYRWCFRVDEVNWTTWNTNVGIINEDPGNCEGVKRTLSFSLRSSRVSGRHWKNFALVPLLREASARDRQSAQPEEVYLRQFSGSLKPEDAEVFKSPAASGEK

vanilloid receptor (VR1) [1] = biological target: T1, vanilloid receptor (VR1) (Homo sapiens, UniProt Q8NER1); test: FLIPR Ca2+ influx assay on CHO K1 cells transfected with the VR1 gene (pharmacological method II); format: cell-based
T1 construct: expressed in transfected cells; host or cells: CHO K1 cells (ECACC), stably transfected
T1 sequence (Q8NER1 whole entry): as above

vanilloid receptor (VR1) [2] = biological target: T1, vanilloid receptor (VR1); test: as above; format: cell-based; remark: listed apart in the source
[3] = biological target: T2, vanilloid receptor 1 (VR1/TRPV1) of the rat species (Rattus norvegicus, UniProt O35433); test: FLIPR Ca2+ influx assay on rat dorsal root ganglia cells (pharmacological method I); format: cell-based; details: for inhibition in percent, Ki (rat) Cap.: @ 1 μM, ne = no effect
T2 construct: The spinal column is removed from decapitated rats; from tissue; host or cells: primary cells dissociated from rat dorsal root ganglia
T2 sequence (O35433 whole entry): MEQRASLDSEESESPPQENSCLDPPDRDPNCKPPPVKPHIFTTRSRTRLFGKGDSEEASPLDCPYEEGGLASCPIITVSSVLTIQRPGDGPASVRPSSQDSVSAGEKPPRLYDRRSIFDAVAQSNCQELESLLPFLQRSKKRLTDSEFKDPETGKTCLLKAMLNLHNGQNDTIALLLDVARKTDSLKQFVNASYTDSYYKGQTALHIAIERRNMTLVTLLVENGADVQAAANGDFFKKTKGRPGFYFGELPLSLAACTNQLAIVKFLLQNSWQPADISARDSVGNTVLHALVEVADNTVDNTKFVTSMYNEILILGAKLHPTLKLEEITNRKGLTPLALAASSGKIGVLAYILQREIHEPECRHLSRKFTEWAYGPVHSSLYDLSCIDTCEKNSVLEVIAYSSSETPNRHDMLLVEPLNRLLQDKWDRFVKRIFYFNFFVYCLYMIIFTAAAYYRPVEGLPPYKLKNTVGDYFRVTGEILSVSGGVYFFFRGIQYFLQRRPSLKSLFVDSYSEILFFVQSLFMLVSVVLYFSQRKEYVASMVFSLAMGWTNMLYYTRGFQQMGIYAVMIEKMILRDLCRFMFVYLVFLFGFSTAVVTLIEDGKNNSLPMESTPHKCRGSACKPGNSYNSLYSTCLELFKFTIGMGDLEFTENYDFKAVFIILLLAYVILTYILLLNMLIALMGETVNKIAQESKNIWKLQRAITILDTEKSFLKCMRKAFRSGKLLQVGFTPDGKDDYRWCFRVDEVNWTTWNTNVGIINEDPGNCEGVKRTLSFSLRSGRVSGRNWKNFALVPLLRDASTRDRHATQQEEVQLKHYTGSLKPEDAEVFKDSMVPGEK
Summary of the method: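 Primary rat dorsal root ganglion cells loaded with 2 μM Fluo-4, Ca2+ influx read on FLIPR as peak fluorescence. Triplicates, at least 3 independent experiments.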

[4] = test system: cold allodynia after chronic constriction injury; test: Neuropathic pain in mice, Bennet model (chronic constriction injury, cold allodynia); format: in vivo; details: mouse
Description: VI. Neuropathic Pain in Mice
The efficacy of compounds of general formula I in the treatment of neuropathic pain is investigated by using the Bennet modell (chronic constriction injury; Bennett and Xie, 1988, Pain 33: 87-107.
NMRI mice (weight 16 to 18 g) under ketavet-rompun anaesthesia are supplied with three loose ligatures of the right nervus ischiaticus. The animals develop an oversensitivity to cold at the position of the pad that is innervated by the injured nerve which—after a recovery period of one week—is quantified over a period of three weeks by using a metal plate that is cooled to 4° C. (cold allodynia). The animals are observed for a period of 2 minutes on this plate and the number of brisk withdrawal reactions of the injured nerve is counted. […] The group size is n=10, the stastical significance of efficacy against allodynia (*=p<0.05) is determined by analysis of variance with repeated measurements and post hoc analysis with Bonferroni adjustment.

[5] = test system: formaldehyde induced nociceptive behaviour; test: Formaldehyde test in mice, second (late) phase; format: in vivo, mouse; details: mouse, read-out: inhibition formaldehyde test (n = 10); for inhibition in vivo at 0.3 mg/kg: 0.3 mg/kg body weight po
[6] = test system: capsaicin induced hypothermie; test: Hypothermie assay in the mouse (capsaicin induced hypothermie); format: in vivo; details: 0.3 mg/kg body weight po; mouse; read-out: inhibition hypothermie (n = 5)
[7] = test system: capsaicin induced hypothermie; test: as above; format: in vivo; details: as printed in this column, read-out: inhibition hypothermie (n = 5)
[8] = table 4, capsaicin, read-out: Ki (human) Cap.
[9] = table 4, capsaicin, read-out: Ki (rat) Cap.
[10] = Table 2, displacement of capsaicin (100 nM), Cheng-Prusoff, read-out: Ki (human)
[11] = Table 2, displacement of capsaicin (100 nM), Cheng-Prusoff, read-out: Ki (rat)

Compound: CC(C(=O)NCc1ccc(C(F)(F)F)nc1Nc1ccc(F)cc1)c1ccc(NS(C)(=O)=O)c(F)c1 (stereo not shown) [Example 112, 2-(3-fluoro-4-methylsulfonamido-phenyl)-N-[2-(4-fluoro-phenylamino)-6-trifluoromethyl-pyridin-3-ylmethyl]-propionamide]
inhibition in percent, IC50 (human) after pH stimulus (VR1/TRPV1 receptor; @ 10 μM): 64% @ 10 μM
inhibition at 25 µM (VR1/TRPV1 receptor): 67%
Ki (vanilloid receptor (VR1) [1]; [8]): 39.2 nM
inhibition at 1 µM (vanilloid receptor (VR1) [2]; CHO-K1, @ 1 μM, ne = no effect, read-out: inhibition in percent, Ki (human) Cap.): 15%
Ki [3, 9]: 31.8 nM and 236 nM

Compound: CCCCCCOc1nc(C(F)(F)F)ccc1CNC(=O)C(C)c1ccc(NS(C)(=O)=O)c(F)c1 (stereo not shown) [Example 91, 2-(3-fluoro-4-methylsulfonamido-phenyl)-N-(2-hexyloxy-6-trifluoromethyl-pyridin-3-ylmethyl)-propionamide]
IC50 (VR1/TRPV1 receptor; table 4): 29.9 nM
Ki (vanilloid receptor (VR1) [1]; [8]): 0.5 nM
Ki ([3]; Ki (rat) Cap., table 4, capsaicin): 0.5 nM
inhibition Bennet model (n = 10) ([4]; 0.1 mg/kg body weight po): 0.1 po 30%

Compound: CC(C(=O)NCc1ccc(C(C)(C)C)cc1OCC(C)(C)C)c1ccc(NS(C)(=O)=O)c(F)c1 (stereo not shown) [Compound 152]
inhibition at 1 µM ([7]; @ 1 μM): 45%
inhibition in vivo at 1 mg/kg ([5]; 1 mg/kg body weight po): 24%

Compound: CC(C(=O)NCc1ccc(C(C)(C)C)cc1OCC(C)(C)C)c1ccc(NS(C)(=O)=O)c(F)c1 (stereo not shown) [Example 152, N-[4-tert-butyl-2-(2,2-dimethyl-propoxy)-benzyl]-2-(3-fluoro-4-methylsulfonamido-phenyl)-propionamide]
Ki (vanilloid receptor (VR1) [1]; [8]): 3.8 nM
inhibition at 10 µM ([7]; @ 10 μM): 63%
Ki [3, 9]: 2.2 nM
inhibition in vivo at 0.3 mg/kg [5]: 33%

Compound: CC(C(=O)NCc1ccc(C(F)(F)F)nc1N1CCC(Cc2ccccc2)CC1)c1ccc(NS(C)(=O)=O)c(F)c1 (stereo not shown) [Example 104, N-(4-benzyl-6′-trifluoromethyl-3,4,5,6-tetrahydro-2H-[1,2′]bipyridinyl-3′-ylmethyl)-2-(3-fluoro-4-methylsulfonamido-phenyl)-propionamide]
IC50 (VR1/TRPV1 receptor; table 4): 40 nM
Ki (vanilloid receptor (VR1) [1]; [8]): 0.2 nM
Ki [3, 9]: 0.2 nM
inhibition Bennet model (n = 10) ([4]; 0.0001 mg/kg body weight po): 0.0001 po 20%

Compound: CC(C(=O)NCc1ccc(C(F)(F)F)cc1[N+](=O)[O-])c1ccc(NS(C)(=O)=O)c(F)c1 (stereo not shown) [Example 62, 2-(3-fluoro-4-(methylsulfonamido)phenyl)-N-(2-nitro-4-(trifluoromethyl)-benzyl)propanamide]
inhibition in percent, IC50 (human) after pH stimulus (VR1/TRPV1 receptor; @ 1 μM, ne = no effect): ne @ 1 μM
inhibition in percent, Ki (human) Cap. (vanilloid receptor (VR1) [2]; @ 1 μM, ne = no effect): ne @ 1 μM
inhibition in percent, Ki (rat) Cap. [3]: ne @ 1 μM

Compound: CC(C(=O)NCc1ccc(C(F)(F)F)cc1N)c1ccc(NS(C)(=O)=O)c(F)c1 (stereo not shown) [Example 61, N-(2-amino-4-(trifluoromethyl)benzyl)-2-(3-fluoro-4-(methylsulfonamido)-phenyl)propanamide]
inhibition at 10 µM (VR1/TRPV1 receptor; @ 10 μM): 47%
inhibition in percent, Ki (human) Cap. (vanilloid receptor (VR1) [2]; @ 1 μM, ne = no effect): ne @ 1 μM
inhibition in percent, Ki (rat) Cap. [3]: ne @ 1 μM

The next lines start with results.

inhibition at 10 µM (VR1/TRPV1 receptor; @ 10 μM): 28%
inhibition at 25 µM (VR1/TRPV1 receptor): 40%
inhibition at 25 µM (vanilloid receptor (VR1) [2]; CHO-K1, @ 25 μM, read-out: inhibition in percent, Ki (human) Cap.): 76%
inhibition at 25 µM ([3]; @ 25 μM, read-out: inhibition in percent, Ki (rat) Cap.): 82%
Compound: CC(C(=O)NCc1ccc(C(F)(F)F)nc1N1CCC(N2CCCC2)CC1)c1ccc(NS(C)(=O)=O)c(F)c1 (stereo not shown) [Example 165, 2-(3-fluoro-4-methylsulfonamido-phenyl)-N-(4-pyrrolidin-1-yl-6′-trifluoromethyl-3,4,5,6-tetrahydro-2H-[1,2′]bipyridinyl-3′-ylmethyl)-propionamide]
inhibition in vivo at 0.3 mg/kg [5]: 29%
inhibition in vivo at 0.3 mg/kg [6]: 41%

IC50 (VR1/TRPV1 receptor; Table 2): 135 nM
Ki (vanilloid receptor (VR1) [1]; [10]): 1.7 nM
Ki [3, 11]: 2.6 nM
melting point: 126 to 127 °C
Compound: CC(C(=O)NCc1ccc(C(F)(F)F)cc1N1CCCCC1)c1ccc(NS(C)(=O)=O)c(F)c1 (stereo not shown) [Example 3]

IC50 (VR1/TRPV1 receptor; Table 2): 64 nM
Ki (vanilloid receptor (VR1) [1]; [10]): 0.3 nM
Ki [3, 11]: 1.1 nM
melting point: 75 to 79 °C
Compound: C[C@H](C(=O)NCc1ccc(C(F)(F)F)nc1N1CCCCC1)c1ccc(NS(C)(=O)=O)c(F)c1 [Example 10, (S)-2-(3-fluoro-4-(methylsulfonamido)phenyl)-N-((2-(piperidin-1-yl)-6-(trifluoromethyl)pyridin-3-yl)methyl)propanamide]

IC50 (VR1/TRPV1 receptor; Table 2): 218 nM
Ki (vanilloid receptor (VR1) [1]; [10]): 0.4 nM
Ki [3, 11]: 3.5 nM
melting point: 75 to 79 °C
Compound: CC(C(=O)NCc1ccc(C(F)(F)F)nc1N1CCCCC1)c1ccc(NS(C)(=O)=O)c(F)c1 (stereo not shown) [Example 2, 2-(3-fluoro-4-(methylsulfonamido)phenyl)-N-((2-(piperidin-1-yl)-6-(trifluoromethyl)pyridin-3-yl)methyl)propanamide]

Ki (vanilloid receptor (VR1) [1]; [10]): 387 nM
Ki [3, 11]: 684 nM
melting point: 149 to 152 °C
Compound: Cc1nc(C(F)(F)F)ccc1CNC(=O)C(C)c1ccc(NS(C)(=O)=O)c(F)c1 (stereo not shown) [Example 1, 2-(3-fluoro-4-(methylsulfonamido)phenyl)-N-((2-methyl-6-(trifluoromethyl)pyridin-3-yl)methyl)propanamide]

Reference: patent publication US8710233B2 (Gruenenthal GmbH, priority 2005, dated 2014)
